Experimental data: patent US4238491A (priority 1977, dated 1980)
Where a name gives a salt, the structure may show the parent alone. Read-outs that look alike come from different tables or passages of the source.

Columns and labels:
[1] = converted from FIG. 15 data to 20 mg/kg basis
Experimental: Blood was drawn from branchial vein of dogs, vein of ear of rabbits and carotic artery of rats after slaughter. Urine was collected with urine bladder catheter for rabbits and metabolic cages for rats. Gathering bile was performed with biliary duct cannulation without anesthesia.

rats = conditions: in connection with RCN; cited from earlier work
hypertension = conditions: cited from earlier work; for antihypertensive effect / side effects: remedies for hypertension
blood pressure of SHR = assay: Antihypertensive effect by single administration, SHR, direct cannulation; format: in vivo, rat (spontaneously hypertensive rats; conditions: for ED (20% blood pressure decrease): Rattus norvegicus, read-out: DB20 (20% blood pressure descending dose); for Rate of Effects (relative to MR): from DB20
Experimental: The effect was examined through both direct and modified tail-cuff methods using male SHRs aged 25 to 30 weeks and weighing about 300 g.
In the direct cannulation method, polyethylene cannules were inserted in femoral arteries of the conscious unanesthesized SHRs under back-fixation,and MR solution was administered in an amount of 0.1 mg/100 g of weight for venous injection, and 1 ml/100 g of weight for oral administration. Changes in the blood pressure over 6 hours were measured with a multi-purpose polygraph RM-85 made by NIHON KODEN Co., Ltd. MR was dissolved in 0.9% NaCl aqueous solution with 1 N-HCl, and the solution was neutralized for use.

in vivo = format: in vivo, rat (SD (SPF)); conditions: rat, in vivo; oral sub-acute, rats; read-out: ineffective dose
Experimental: All the rats were observed daily and general symptoms noted. Weight was measured daily, average food-intake once every three days, and average water-intake once every two days.

| SMILES | ED (20% blood pressure decrease) (blood pressure of SHR; iv) [mg/kg] | ED (20% blood pressure decrease) (blood pressure of SHR; po) [mg/kg] | Rate of Effects (relative to MR) (blood pressure of SHR; I.V.) | Rate of Effects (relative to MR) (blood pressure of SHR; P.O.) | other results |
| --- | --- | --- | --- | --- | --- |
| COC(=O)[C@H]1[C@H]2C[C@@H]3c4[nH]c5cc(OC)ccc5c4CCN3C[C@H]2C[C@@H](OC(=O)/C=C/c2cc(OC)c(OC)c(OC)c2)[C@@H]1OC [RCN, Rescinnamin] | 1.3 | 9.7 | – | – | Area under the Curve of MR Content in Serum [1]: 20.2; pathological changes in adrenal and liver (rats): not reported; antihypertensive effect (hypertension): prolonged antihypertensive effect; side effects (hypertension): uneasiness due to central nervous system depression, depressed state and loss of vitality; pathological change of stomach mucous (hypertension; when RCN is used): often occurs; NOAEL (in vivo): 6 mg/kg |
| C[C@](N)(Cc1ccc(O)c(O)c1)C(=O)O [L-alpha-methyl-dopa] | – | – | 0.01 | 0.01 | ED (20% blood pressure decrease) (blood pressure of SHR; iv, I.V.): 303 mg/kg; ED (20% blood pressure decrease) (blood pressure of SHR; po, P.O.): 1740 mg/kg |
| C[N+](C)(C)CCCCCC[N+](C)(C)C [Hexamethonium chloride] | 39.7 | 320 | 0.08 | 0.04 | – |
| NNc1nncc2ccccc12 [Hydralazine hydrochloride] | 0.3 | 6.4 | 11.7 | 1.85 | – |
| COc1cc2[nH]c3c(c2cc1OC)CCN1C[C@H]2[C@H](C)OC=C(C(=O)OCCN(C)C)[C@H]2C[C@H]31.Cl.Cl [Dimethylaminoethyl reserpilinate dihydrochloride] | – | – | 0.01 | 0.02 | DB20 (20% blood pressure descending dose) (blood pressure of SHR; I.V.): 415.7 mg/kg; DB20 (20% blood pressure descending dose) (blood pressure of SHR; P.O.): 625.2 mg/kg |
| NS(=O)(=O)c1cc2c(cc1Cl)NC(C(Cl)Cl)NS2(=O)=O (stereo not shown) [Trichlormethiazide] | – | – | 0.05 | 0.07 | ED (20% blood pressure decrease) (blood pressure of SHR; iv, I.V.): 79.8 mg/kg; ED (20% blood pressure decrease) (blood pressure of SHR; po, P.O.): 150 mg/kg |
| COC(=O)[C@H]1[C@H]2C[C@@H]3c4[nH]c5cc(OC)ccc5c4CCN3C[C@H]2C[C@@H](OC(=O)c2cc(OC)c(OC)c(OC)c2)[C@@H]1OC [RSP, Reserpine] | 0.2 | 3.8 | 17.7 | 3.11 | antihypertensive effect (hypertension): prolonged antihypertensive effect; side effects (hypertension): uneasiness due to central nervous system depression, depressed state and loss of vitality |
